Assay results: PubChem BioAssay (NCI)
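Compound exposure: 48 hours, 5 concentrations, 96-well plates. TGI marks complete inhibition of growth.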

Experiments:
Test in all cases: inhibition of tumour cell growth, NCI panel, 48 h
RXF-631 renal = tested on: RXF-631 renal
XF 498 CNS = tested on: XF 498 CNS
LXFL 529 NSCLC = tested on: LXFL 529 NSCLC
DLD-1 colon = tested on: DLD-1 colon
DMS 273 small cell lung = tested on: DMS 273 small cell lung
TK-10 renal = tested on: TK-10 renal
M19-MEL melanoma = tested on: M19-MEL melanoma
HOP-18 NSCLC = tested on: HOP-18 NSCLC
KM20L2 colon = tested on: KM20L2 colon
SNB-78 CNS = tested on: SNB-78 CNS
MDA-MB-231 breast = tested on: MDA-MB-231 breast
DMS 114 small cell lung = tested on: DMS 114 small cell lung

Row | SMILES | TGI (RXF-631 renal) | TGI (XF 498 CNS) | TGI (LXFL 529 NSCLC) | TGI (DLD-1 colon) | TGI (DMS 273 small cell lung) | TGI (TK-10 renal) | TGI (M19-MEL melanoma) | TGI (HOP-18 NSCLC) | TGI (KM20L2 colon) | TGI (SNB-78 CNS) | TGI (MDA-MB-231 breast) | TGI (DMS 114 small cell lung)
1 | CCOC(=O)/C(=C/c1ccccc1Br)P(=O)(OCC)OCC | 8.45 µM | 3.56 µM | 2.92 µM | 4.85 µM | 3.04 µM | 7.98 µM | 3.68 µM | 10.7 µM | 5.67 µM |  |  | 
2 | CCCCCCCC(CC(=O)NC(CO)C(=O)NC(CO)CC(C)C)OC(=O)CC(CCCCCCC)OC(=O)CC(CCCCCCC)OC1OC(C)C(O)C(OC2OC(C)C(O)C(O)C2O)C1O (centres undefined) |  |  | 18.1 µM | 31.7 µM | 24 µM | 30.8 µM | 23.3 µM | 32.1 µM | 32.1 µM | 39.1 µM | 26.6 µM | 16.5 µM
3 | CC(=O)Oc1ccc(Nn2c3ccccc3c3ccccc32)c(C)c1 |  | 77.3 µM | > 100 µM | > 100 µM | 51.9 µM | > 100 µM | > 100 µM | 75.8 µM | 78.9 µM | 91.2 µM |  | 79.8 µM
4 | O=C(Cc1ccccc1)NN1C(=O)C(Cl)C1c1cccc([N+](=O)[O-])c1 (centres undefined) |  | > 57.1 µM | 49.7 µM | > 100 µM | > 100 µM | > 100 µM | > 37.1 µM | > 100 µM | > 100 µM | > 100 µM |  | > 93.4 µM
5 | O=C(Cc1ccccc1)N/N=C(/c1nc2ccc([N+](=O)[O-])cc2[nH]c1=O)C(O)c1ccccc1Cl (centres undefined) |  | > 100 µM | > 100 µM | > 100 µM |  | > 100 µM | > 100 µM | > 100 µM |  | > 100 µM |  | 
6 | O=C(Cc1ccccc1)N/N=C(/c1nc2ccc([N+](=O)[O-])cc2[nH]c1=O)C(O)c1ccc(C(O)/C(=N/NC(=O)Cc2ccccc2)c2nc3ccc([N+](=O)[O-])cc3[nH]c2=O)cc1 (centres undefined) | > 100 µM | > 100 µM | > 100 µM | > 100 µM |  | > 100 µM | > 100 µM |  | > 100 µM |  |  | > 100 µM
7 | O=C1C=CC(=O)c2cc(Sc3ccccc3)c(=O)c(Sc3ccccc3)cc21 |  | > 100 µM | 70.3 µM | > 100 µM | > 100 µM | > 100 µM | > 100 µM | > 100 µM | > 100 µM |  |  | 53.7 µM
8 | CC(=O)SC(SC(C)=O)SC(C)=O | > 100 µM |  | > 100 µM | > 100 µM | > 100 µM | > 100 µM | > 100 µM | > 100 µM | > 100 µM | > 100 µM |  | > 100 µM
9 | CCCCN(CCCC)CC(C(=O)Nc1ccc([N+](=O)[O-])cc1[N+](=O)[O-])/C(C)=N\NC(=O)C[N+](C)(C)C (centres undefined) | > 100 µM | > 100 µM | > 100 µM | > 100 µM | 31.2 µM | > 100 µM | > 100 µM | > 100 µM | > 100 µM | > 100 µM |  | > 100 µM
10 | CC(=O)Oc1c(Br)ccc2cc(C(Br)Br)c(C(=O)c3ccccc3)nc12 | 47.6 µM | 36.1 µM | 52.3 µM | 51.5 µM | 42.3 µM | 31.9 µM | 44.1 µM | 31.2 µM | 42.2 µM | 71.4 µM |  | 49.6 µM
11 | COC1=CC(=O)c2c(cc3c(c2O)-c2c(OC)cc4cc5c(c(O)c4c2OC(=O)CC(C)(O)C3)C(=O)CC(C)(O)C5)C1=O (centres undefined) |  | 3.23 µM | 4.6 µM | 9.01 µM | 5.31 µM | 14.2 µM | 1.52 µM | 5.39 µM | 5.29 µM | 7.12 µM |  | 3.58 µM
12 | CN(C)CCN(C)C(=O)C1CCCN1C(=O)OCc1ccccc1 (centres undefined) |  | > 100 µM | > 100 µM | > 100 µM | > 100 µM | > 100 µM | > 100 µM |  | > 100 µM | > 100 µM |  | > 100 µM
